# Reference: paper PMC8859269, “Lichenysin Production by Bacillus licheniformis Food Isolates and Toxicity to Human Cells” (Frontiers in Microbiology, 2022)
# Entries after “also recorded” stand apart in the source; their conditions may differ. Like-named read-outs stand apart in the source and are kept apart here. Numbered stars: 1 amine (or outer) side, 2 acyl side, 3 side chain; on linkers, the order of the positions; unused ones are H or OH. Bridge positions count the residues as written; N and C are the ends. Square brackets hold non-standard residues; d marks the D form. Peptide text beside a SMILES is read from it. X2 = CC(C)CCCCCCCCC[C@H](CC(=O)[*:1])O[*:2]
# Key:
# [1] = system: pig ileum organoids; assay: alamarBlue cytotoxicity assay, pig ileum organoids; format: cell-based; conditions: 200 μM, 72 h
# Procedure: (§1) To perform cytotoxicity assay, two batches of concentrated lichenysin were prepared from biomass grown on LB agar plates as described in section “Extraction of Lichenysin From Biomass Collected From Surface Growth on LB Agar and Skimmed Milk Agar.” Instead of using 150 mg biomass, lichenysin was extracted from 6.5 g of biomass from strain B4123, and dissolved in a final volume of 300 μl methanol. A small aliquot of 1 μl was taken to determine the concentration of the concentrated lichenysin extract via Reversed-Phase High-Performance Liquid Chromatography – Electro Spray Ionization Mass Spectrometry (RP-HPLC-ESI-MS). […]
# (§2) The alamarBlue (Thermo Fischer Scientific) fluorometric assay was used to examine the cytotoxicity of lichenysin and surfactin toward two human cell lineages (HEK293, Caco-2) and ileum organoids from pigs. Culturing medium DMEM with Alamar blue (i.e., a no-cells control) and cells exposed to 10% DMSO were used to correct for background fluorescence and cell death, respectively. […]
# (§3) The alamarBlue assay was performed as described in [Burczynski et al. (2000)], [Hamid et al. (2004)], and [Rampersad (2012)]. […] The fluorescence at the emission wavelength of 590 nm was measured with a SpectraMax M5 (Molecular Devices, San Jose, CA, United States) and expressed as relative fluorescence units. […]
# (§4) The cell viability (%) was calculated by using the formula: […]
# [2] = alamarBlue cytotoxicity assay, pig ileum organoids; format: cell-based; conditions: 72 h exposure, alamarBlue, read-out: IC50 (cytotoxic level)
# Procedure: as §1, §2, §3, §4
# [3] = system: Human Embryonic Kidney (HEK293) cells; assay: alamarBlue cytotoxicity assay, HEK293 cells; format: cell-based; conditions: HEK293, 200 μM (∼200 μg/ml), exposure for 72 h
# Procedure: as §1, §2, §3, §4
# [4] = alamarBlue cytotoxicity assay, HEK293 cells; format: cell-based, human; conditions: human; HEK293, 72 h exposure, alamarBlue; read-out: IC50 (cytotoxic level)
# Procedure: as §1, §2, §3, §4
# [5] = system: Caco-2 human intestinal epithelial cells; assay: alamarBlue cytotoxicity assay, Caco-2 cells; format: cell-based; conditions: Homo sapiens, Caco-2, 72 h
# Procedure: (§5) To perform cytotoxicity assay, two batches of concentrated lichenysin were prepared from biomass grown on LB agar plates as described in section “Extraction of Lichenysin From Biomass Collected From Surface Growth on LB Agar and Skimmed Milk Agar.” Instead of using 150 mg biomass, lichenysin was extracted from 6.5 g of biomass from strain B4123, and dissolved in a final volume of 300 μl methanol. A small aliquot of 1 μl was taken to determine the concentration of the concentrated lichenysin extract via Reversed-Phase High-Performance Liquid Chromatography – Electro Spray Ionization Mass Spectrometry (RP-HPLC-ESI-MS). The remaining concentrated extract was entirely evaporated under a flow of nitrogen at 40°C in a heating block. The dry residue was resuspended in either 99% Dimethyl Sulfoxide (DMSO) or Dulbecco’s Modified Eagle Medium (DMEM; Gibco, Thermo Fischer Scientific, Bleiswijk, Netherlands) without phenol red serum or antibiotics. Surfactin (purchased from Merck) was also used in cytotoxicity assays by dissolving 10 mg in 1 ml of distilled water (10 mM) (with an adjusted pH of ∼11.7 to obtain full solubility). Both lichenysin and surfactin were diluted to the desired concentration in DMEM medium without phenol red, serum and antibiotics before adding to the cells.
# (§6) Human Embryonic Kidney (HEK293) cells were obtained from Invivogen (San Diego, CA, United States), and Caco-2 human intestinal epithelial cells (ATCC HTB-37) were purchased from the American Type Culture Collection (Manassas, VA, United States). Both cell lines were maintained in DMEM medium containing 10 % Fetal Bovine Serum (FBS) (Thermo Fischer Scientific) and 1 % penicillin/streptomycin (Merck) to attain a confluent growth. The grown HEK293 and Caco-2 cells were seeded and suspended at a final concentration of 2 × 10^5 cells/ml (in 200 μl) in 96 wells-plates (Greiner). […]
# as §2
# (§7) The alamarBlue assay was performed as described in [Burczynski et al. (2000)], [Hamid et al. (2004)], and [Rampersad (2012)]. […] The fluorescence at the emission wavelength of 590 nm was measured with a SpectraMax M5 (Molecular Devices, San Jose, CA, United States) and expressed as relative fluorescence units. The average fluorescence of the no-cells control was used to normalize all recorded fluorescence emission values.
# as §4
# [6] = alamarBlue cytotoxicity assay, Caco-2 cells; format: cell-based, human; conditions: human, Caco-2, 72 h exposure, alamarBlue; read-out: IC50 (cytotoxic level)
# Procedure: as §5, §6, §2, §7, §4
smiles,measurement,setting,value
"CC(C)CCCCCCCCC[C@@H]1CC(=O)N[C@@H](CCC(=O)O)C(=O)N[C@@H](CC(C)C)C(=O)N[C@H](CC(C)C)C(=O)N[C@@H](C(C)C)C(=O)N[C@@H](CC(=O)O)C(=O)N[C@H](CC(C)C)C(=O)N[C@@H](CC(C)C)C(=O)O1 [Surfactin, cyclo-[Glu^1-Leu^2-Leu^3-Val^4-Asp^5-Leu^6-Leu^7 − − β-OH fatty acid]] (EL[dL]VD[dL]L; linker N-C via X2)",toxicity at the highest tested concentration,[1],did not show toxicity; also recorded: no toxicity was seen
same,IC50,[2],> 200 µg/mL
same,toxicity at the highest tested concentration,[3],not toxic
same,IC50,[4],> 200 µg/mL
same,IC50,"[5]; Caco-2, 72 h incubation, read-out: concentration needed to reduce cell viability by 50% (IC50)",23.4 µg/mL
same,IC50,"[5]; in log10 scale, read-out: IC50 in log10 scale (converted)",1.37 µM
same,IC50,[5]; read-out: IC50,23.5 µM
same,IC50,[6],23.5 µg/mL
